Activity calls are given as the source filed them. The rule behind the calls is not given here.
Experiments:
HEK293 [1] = test: Substrate activity at human OCT1*2 allele mutant expressed in HEK293 cells assessed as increase in compound uptake at 0.1 uM incubated for 2 mins by LC-MS/MS analysis relative to control empty vector transfected cells; assay type: cell-based
HEK293 [2] = test: Substrate activity at human OCT1*4 allele mutant expressed in HEK293 cells assessed as increase in compound uptake at 0.1 uM incubated for 2 mins by LC-MS/MS analysis relative to control empty vector transfected cells; assay type: cell-based
[3] = biological target: T1, Solute carrier family 22 member 1 (Homo sapiens, UniProt O15245); test: Inhibition of human OCT1 expressed in HEK293 cells assessed as reduction in ASP+ substrate uptake by microplate reader based analysis; assay type: cell-based
T1 sequence (O15245 whole entry): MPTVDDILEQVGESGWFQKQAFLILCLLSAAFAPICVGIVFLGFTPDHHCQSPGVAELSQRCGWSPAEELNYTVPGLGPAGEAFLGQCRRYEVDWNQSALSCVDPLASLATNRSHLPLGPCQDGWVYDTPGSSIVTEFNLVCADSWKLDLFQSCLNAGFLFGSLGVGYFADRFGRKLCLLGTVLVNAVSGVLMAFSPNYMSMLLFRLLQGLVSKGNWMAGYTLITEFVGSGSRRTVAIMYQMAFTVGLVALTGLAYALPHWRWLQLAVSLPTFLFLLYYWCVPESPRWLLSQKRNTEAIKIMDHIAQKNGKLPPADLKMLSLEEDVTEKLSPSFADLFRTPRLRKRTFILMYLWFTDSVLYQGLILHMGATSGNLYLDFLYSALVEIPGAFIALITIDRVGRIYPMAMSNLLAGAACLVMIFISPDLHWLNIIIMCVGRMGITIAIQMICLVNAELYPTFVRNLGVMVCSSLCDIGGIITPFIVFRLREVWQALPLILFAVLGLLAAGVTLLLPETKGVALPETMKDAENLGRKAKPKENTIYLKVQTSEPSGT

[4] = Unbound maximal portal vein concentration of in human at 4 mg, po; assay type: ADME, tissue-based; conditions: in vivo
[5] = biological target: T1, Solute carrier family 22 member 1; test: Substrate activity at OCT1 in primary human hepatocytes assessed as increase in compound uptake at 0.1 uM incubated for 2 mins by LC-MS/MS analysis relative to control; assay type: cell-based
[6] = Unbound Cmax in human at 4 mg, po; assay type: ADME; conditions: in vivo
HEK293 [7] = test: Substrate activity at human OCT1*6 allele mutant expressed in HEK293 cells assessed as increase in compound uptake at 0.1 uM incubated for 2 mins by LC-MS/MS analysis relative to control empty vector transfected cells; assay type: cell-based
HEK293 [8] = test: Substrate activity at human OCT1*7 allele mutant expressed in HEK293 cells assessed as increase in compound uptake at 0.1 uM incubated for 2 mins by LC-MS/MS analysis relative to control empty vector transfected cells; assay type: cell-based
[9] = Cmax in human at 4 mg, po; assay type: ADME; set-up: dose 4 mg, route oral; conditions: in vivo
HEK293 [10] = test: Substrate activity at human OCT1*3 allele mutant expressed in HEK293 cells assessed as increase in compound uptake at 0.1 uM incubated for 2 mins by LC-MS/MS analysis relative to control empty vector transfected cells; assay type: cell-based
HEK293 [11] = test: Substrate activity at human OCT1*8 allele mutant expressed in HEK293 cells assessed as increase in compound uptake at 0.1 uM incubated for 2 mins by LC-MS/MS analysis relative to control empty vector transfected cells; assay type: cell-based
[12] = Unbound maximal portal vein concentration of in human at 5 mg, po dosed as immediate release formulation; assay type: ADME, organism-based; conditions: in vivo
[13] = Cmax in human at 10 mg, po dosed as controlled release formulation; assay type: ADME, organism-based; set-up: dose 10 mg, route oral; conditions: in vivo
[14] = Ratio of unbound Cmax in human at 5 mg, po dosed as immediate release formulation to inhibition of human OCT1 expressed in HEK293 cells assessed as reduction in ASP+ substrate uptake by microplate reader based analysis; assay type: ADME, organism-based; conditions: in vivo
in vitro = conditions: PAMPA
Description: Passive membrane permeability by LC-MS/MS analysis based PAMPA

OCT1 (SLC22A1) [15] = biological target: T2, OCT1 (SLC22A1) (Homo sapiens, UniProt O15245); test: Substrate activity at human OCT1 expressed in HEK293 cells assessed as increase in compound uptake at 0.5 uM incubated for 2 mins by LC-MS/MS analysis relative to control empty vector transfected cells; assay type: cell-based; conditions: HEK293 cells that express human OCT1, read-out: FC
T2 sequence (O15245 whole entry): T1 sequence (O15245 whole entry)

[16] = Unbound Cmax in human at 5 mg, po dosed as immediate release formulation; assay type: ADME, organism-based; conditions: in vivo
[17] = Unbound maximal portal vein concentration of in human at 10 mg, po dosed as controlled release formulation; assay type: ADME, organism-based; conditions: in vivo
[18] = Cmax in human at 5 mg, po dosed as immediate release formulation; assay type: ADME, organism-based; set-up: dose 5 mg, route oral; conditions: in vivo
OCT1 (SLC22A1) [19] = biological target: T2, OCT1 (SLC22A1); test: Substrate activity at human OCT1 expressed in HEK293 cells assessed as increase in compound uptake at 0.05 uM incubated for 2 mins by LC-MS/MS analysis relative to control empty vector transfected cells; assay type: cell-based; conditions: HEK293 cells that express human OCT1, read-out: FC
OCT1 (SLC22A1) [20] = biological target: T2, OCT1 (SLC22A1); test: Substrate activity at human OCT1 expressed in HEK293 cells assessed as increase in compound uptake at 0.1 uM incubated for 2 mins by LC-MS/MS analysis relative to control empty vector transfected cells; assay type: cell-based; conditions: HEK293 cells that express human OCT1, read-out: FC
[21] = Ratio of unbound maximal portal vein concentration in human at 5 mg, po dosed as immediate release formulation to inhibition of human OCT1 expressed in HEK293 cells assessed as reduction in ASP+ substrate uptake by microplate reader based analysis; assay type: ADME, organism-based; conditions: in vivo
[22] = Unbound Cmax in human at 10 mg, po dosed as controlled release formulation; assay type: ADME, organism-based; conditions: in vivo
[23] = Ratio of unbound Cmax in human at 10 mg, po dosed as controlled release formulation to inhibition of human OCT1 expressed in HEK293 cells assessed as reduction in ASP+ substrate uptake by microplate reader based analysis; assay type: ADME, organism-based; conditions: in vivo
[24] = Ratio of unbound maximal portal vein concentration in human at 10 mg, po dosed as controlled release formulation to inhibition of human OCT1 expressed in HEK293 cells assessed as reduction in ASP+ substrate uptake by microplate reader based analysis; assay type: ADME, organism-based; conditions: in vivo
[25] = Cmax in human at 10 mg, iv; conditions: in vivo
[26] = Cmax in human at 50 mg, po dosed as slow release formulation; conditions: in vivo
[27] = Cmax in human at 10 mg, im; conditions: in vivo
[28] = Cmax in human at 10 mg, po dosed as immediate release formulation; conditions: in vivo
HEK293 [29] = test: Substrate activity at human OCT1*5 allele mutant expressed in HEK293 cells assessed as increase in compound uptake at 0.1 uM incubated for 2 mins by LC-MS/MS analysis relative to control empty vector transfected cells; assay type: cell-based
OCT1 (SLC22A1) [30] = biological target: T2, OCT1 (SLC22A1); test: Substrate activity at human OCT1 expressed in HEK293 cells assessed as increase in compound uptake by measuring Km incubated for 2 mins by LC-MS/MS analysis based Michaelis-Menten plot analysis relative to control empty vector transfected cells; assay type: cell-based; conditions: HEK293 cells that express human OCT1
[31] = Unbound Cmax in human at 450 mg, po; assay type: ADME; conditions: in vivo
[32] = Intrinsic clearance in human liver microsomes; assay type: ADME, Microsome; conditions: read-out: CLH
[33] = Cmax in human at 450 mg, po; assay type: ADME; set-up: dose 450 mg, route oral; conditions: in vivo
[34] = Unbound maximal portal vein concentration of in human at 450 mg, po; assay type: ADME, tissue-based; conditions: in vivo
[35] = biological target: T1, Solute carrier family 22 member 1; test: Substrate activity at human OCT1 expressed in HEK293 cells assessed as increase in compound uptake by measuring Vmax incubated for 2 mins by LC-MS/MS analysis based Michaelis-Menten plot analysis relative to control empty vector transfected cells; assay type: cell-based; conditions: hek293, 2 min
[36] = Ratio of unbound Cmax in human at 50 mg, iv to inhibition of human OCT1 expressed in HEK293 cells assessed as reduction in ASP+ substrate uptake by microplate reader based analysis; assay type: ADME, organism-based; conditions: in vivo
[37] = Unbound Cmax in human at 50 mg, iv; assay type: ADME; conditions: in vivo
[38] = Cmax in human at 50 mg, iv; assay type: ADME; set-up: dose 50 mg, route intravenous; conditions: in vivo
[39] = Cmax in human at 50 mg, po; assay type: ADME; set-up: dose 50 mg, route oral; conditions: in vivo
[40] = Unbound Cmax in human at 50 mg, po; assay type: ADME; conditions: in vivo
[41] = Unbound maximal portal vein concentration of in human at 50 mg, iv; assay type: ADME, tissue-based; conditions: in vivo
[42] = Ratio of unbound maximal portal vein concentration in human at 50 mg, po to inhibition of human OCT1 expressed in HEK293 cells assessed as reduction in ASP+ substrate uptake by microplate reader based analysis; assay type: ADME, organism-based; conditions: in vivo
[43] = Ratio of unbound Cmax in human at 50 mg, po to inhibition of human OCT1 expressed in HEK293 cells assessed as reduction in ASP+ substrate uptake by microplate reader based analysis; assay type: ADME, organism-based; conditions: in vivo
[44] = Ratio of unbound maximal portal vein concentration in human at 50 mg, iv to inhibition of human OCT1 expressed in HEK293 cells assessed as reduction in ASP+ substrate uptake by microplate reader based analysis; assay type: ADME, organism-based; conditions: in vivo
[45] = Unbound maximal portal vein concentration of in human at 50 mg, po; assay type: ADME, tissue-based; conditions: in vivo

CN1CC[C@]23c4c5ccc(O)c4O[C@H]2C(=O)CC[C@H]3[C@H]1C5 [HYDROMORPHONE]
Activity (HEK293 [1]): inactive
Activity (HEK293 [2]): inactive
IC50 [3]: 138 µM
fCmax [4]: 0.72 µM
fold change (FC) [5]: 1.7
fCmax [6]: 0.03 µM
Activity (HEK293 [7]): inactive
Activity (HEK293 [8]): Active
Cmax [9]: 40 nM
Activity (HEK293 [10]): inactive
Activity (HEK293 [11]): Active

COc1ccc2c3c1O[C@H]1C(=O)CC[C@@]4(O)[C@@H](C2)N(C)CC[C@]314 [OXYCODONE]
fCmax [12]: 0.54 µM
Cmax [13]: 50 nM
Ratio [14]: 0.00001
IC50 [3]: 2000 µM
Papp (in vitro): 17.9 ×10⁻⁶ cm/s
uptake ratio at 2 min, 0.5 µM (OCT1 (SLC22A1) [15]): 0.9
fCmax [16]: 0.03 µM
fCmax [17]: 1.06 µM
Cmax [18]: 50 nM
uptake ratio at 2 min, 0.05 µM (OCT1 (SLC22A1) [19]): 0.9
uptake ratio at 2 min, 0.1 µM (OCT1 (SLC22A1) [20]): 0.8
Ratio [21]: 0.0003
fCmax [22]: 0.03 µM
Ratio [23]: 0.00001
Ratio [24]: 0.001

CN1CC[C@]23c4c5ccc(O)c4O[C@H]2[C@@H](O)C=C[C@H]3[C@H]1C5 [MORPHINE]
Cmax [25]: 1050 nM
Cmax [26]: 30 nM
Cmax [27]: 250 nM
IC50 [3]: 71.8 to 72 µM
Cmax [28]: 40 nM

C[N+]1(CC2CC2)CC[C@]23c4c5ccc(O)c4O[C@H]2C(=O)CC[C@@]3(O)[C@H]1C5 (stereo not given in full) [METHYLNALTREXONE]
Activity (HEK293 [1]): inactive
Activity (HEK293 [2]): inactive
Activity (HEK293 [29]): inactive
IC50 [3]: 234 µM
Km at 2 min (OCT1 (SLC22A1) [30]): 20 to 20.3 µM
Activity (HEK293 [7]): inactive
Activity (HEK293 [8]): Active
fCmax [31]: 0.12 µM
microsomal CLint [32]: 32 µL/min/mg
Cmax [33]: 140 nM
Activity (HEK293 [10]): inactive
fCmax [34]: 64.93 µM
Activity (HEK293 [11]): Active
Vmax [35]: 371.9 pmol/min/mg

CCOC(=O)[C@@]1(c2ccccc2)CCC=C[C@@H]1N(C)C
Ratio [36]: 0.064
fCmax [37]: 2.49 µM
Cmax [38]: 3310 nM
IC50 [3]: 38.7 µM
Cmax [39]: 110 nM
Papp (in vitro): 31.6 ×10⁻⁶ cm/s
uptake ratio at 2 min, 0.5 µM (OCT1 (SLC22A1) [15]): 1.3
fCmax [40]: 0.08 µM
fCmax [41]: 10.58 µM
uptake ratio at 2 min, 0.05 µM (OCT1 (SLC22A1) [19]): 1.3
uptake ratio at 2 min, 0.1 µM (OCT1 (SLC22A1) [20]): 1.3
Ratio [42]: 0.211
Ratio [43]: 0.002
Ratio [44]: 0.273
fCmax [45]: 8.18 µM

— ChEMBL document CHEMBL4321821, “Opioids as Substrates and Inhibitors of the Genetically Highly Variable Organic Cation Transporter OCT1” (J Med Chem, 2019)
